≈ marks a conversion by molar mass, not a printed value. Structures can show the parent of a compound that is named as a salt.
tested on: poly d(A-T)-d(A-T); assay: Linkage to DNA, Tm value comparison with and without compound (Test Example 1); format: binding; conditions: poly d(A-T)-d(A-T) in buffer; difference from Tm of the DNA alone
Procedure: Investigation was made on the linkage of each compound to DNA. The test was carried out by comparing a Tm value in the case that the compound was added to the DNA solution with a Tm value in the case that no compound was added thereto.
That is to say, poly d(A-T)-d(A-T) was used as the DNA. This DNA was dissolved in a buffer solution and the compound was further added thereto, and the Tm value was then measured. On the other hand, the Tm of the DNA alone was measured, and a difference (ΔTm) was then calculated. For the measurement, a U-3200 model spectrophotometer made by Hitachi, Ltd. was used, and for the control of temperature, SPR-10 model made by Hitachi, Ltd. was used.

| SMILES | ΔTm [°C] |
| --- | --- |
| N=C(N)NCC(=O)Nc1cccc(-c2nc3cc(C(=O)Nc4ccc(N(CCCl)CCCl)cc4)ccc3[nH]2)c1 [Compound 2001, 1H-2-[3-(guanidinoacetylamino)phenyl]benzimidazole-5-[N-[4-[N,N-bis(2-chloroethyl)amino)phenyl]]carboxyamide dihydrochloride] | 14 |

tested on: B16 melanoma cells; assay: in vitro inhibitory activity on tumor cell growth, B16 melanoma cells (Test Example 2); format: cell-based; conditions: 72 h; B16 mouse melanoma cells, 37° C., 3 days, 5% CO2; concentration for 50% growth inhibitory effect; read-out: IC50 (anti-tumor activity)
Procedure: The anticancer activity of each compound will be described. […] This test was carried out by measuring an in vitro inhibitory activity on tumor cell growth. That is to say, the B16 melanoma cells of a mouse were planted on a culture plate having 96 cells, and a compound was then added after one day and the cells were cultured at 37° C. for 3 days in 5% CO2. Next, a compound concentration (IC50) necessary to accomplish a 50% growth inhibitory effect was determined in accordance with a procedure described in Cancer. Res., Vol. 48, p. 589-601 (1988). The unit of the drug concentration was μg/ml. The result of distamycin is also simultaneously shown as a comparative example.

| SMILES | IC50 [mg/L] |
| --- | --- |
| Cn1cc(NC(=O)c2cc(NC(=O)c3cc(NC=O)cn3C)cn2C)cc1C(=O)NCCC(=N)N [Distamycin, distamycin, reference compound] | 36 (≈ 74.8 µM) |

same assay, conditions: B16 mouse melanoma cells, 37° C., 3 days, 5% CO2; concentration for 50% growth inhibitory effect

| SMILES | IC50 (anti-tumor activity) [mg/L] |
| --- | --- |
| N=C(N)CCNC(=O)c1ccc2[nH]c(-c3ccc(NC(=O)CCCc4ccc(N(CCCl)CCCl)cc4)cc3)nc2c1 [Compound 2, 1H-2-[4-[[4-[4-[N,N-bis(2-chloroethyl)amino]phenyl]butyryl]amino]phenyl]benzimidazole-5-[N-(2-amidinoethyl]carboxyamide hydrochloride] | 0.58 |
| CN(C)CCCNC(=O)c1ccc2[nH]c(-c3ccc(NC(=O)CCCc4ccc(N(CCCl)CCCl)cc4)cc3)nc2c1 [Compound 29, 1H-2-[4-[[4-[4-[N,N-bis(2-chloroethyl)amino]phenyl]butyryl]amino]phenyl]benzimidazole-5-[N-[3-(dimethylamino)propyl]]carboxyamide] | 3.05 (≈ 4.89 µM) |
| N=C(N)CCNC(=O)c1ccc2[nH]c(-c3cccc(NC(=O)CCCc4ccc(N(CCCl)CCCl)cc4)c3)nc2c1 [Compound 47, 1H-2-[3-[[4-[4-[N,N-bis(2-chloroethyl)amino]phenyl]butyryl]amino]phenyl]benzimidazole-5-[N-(2-amidinoethyl]carboxyamide hydrochloride] | 0.38 |
| N=C(N)NCC(=O)Nc1ccc(-c2nc3cc(C(=O)Nc4ccc(N(CCCl)CCCl)cc4)ccc3[nH]2)cc1 [Compound 1001, 1H-2-[4-(guanidinoacetylamino)phenyl]benzimidazole-5-[N-[4-[N,N-bis(2-chloroethyl)amino)phenyl]]carboxyamide dihydrochloride] | 0.36 |
| N=C(N)NCC(=O)Nc1ccc(-c2nc3cc(C(=O)Nc4cccc(N(CCCl)CCCl)c4)ccc3[nH]2)cc1 [Compound 1010, 1H-2-[4-(guanidinoacetylamino)phenyl]benzimidazole-5-[N-[3-[N,N-bis(2-chloroethyl)amino]phenyl]]carboxyamide] | 3.19 (≈ 5.62 µM) |
| N=C(N)NCC(=O)Nc1cccc(-c2nc3cc(C(=O)Nc4ccc(N(CCCl)CCCl)cc4)ccc3[nH]2)c1 [Compound 2001, 1H-2-[3-(guanidinoacetylamino)phenyl]benzimidazole-5-[N-[4-[N,N-bis(2-chloroethyl)amino)phenyl]]carboxyamide dihydrochloride] | 0.82 |
| Cc1cc(NC(=O)c2ccc3[nH]c(-c4cccc(NC(=O)CNC(=N)N)c4)nc3c2)ccc1N(CCCl)CCCl [Compound 2004, 1H-2-[3-(guanidinoacetylamino)phenyl]benzimidazole-5-[N-[3-methyl-4-[N,N-bis(2-chloroethyl)amino]phenyl]]carboxyamide dihydrochloride] | 0.53 |
| N=C(N)NCC(=O)Nc1cccc(-c2nc3cc(C(=O)Nc4ccc(N(CCCl)CCCl)c(Cl)c4)ccc3[nH]2)c1 [Compound 2006, 1H-2-[3-(guanidinoacetylamino)phenyl]benzimidazole-5-[N-[3-chloro-4-[N,N-bis(2-chloroethyl)amino]phenyl]]carboxyamide dihydrochloride] | 0.65 |
| N=C(N)NCCCC(=O)Nc1cccc(-c2nc3cc(C(=O)Nc4ccc(N(CCCl)CCCl)cc4)ccc3[nH]2)c1 [Compound 2011, 1H-2-[3-[4-(guanidino)butyryl]amino]phenyl]benzimidazole-5-[N-[4-[N,N-bis(2-chloroethyl)amino)phenyl]]carboxyamide dihydrochloride] | 0.97 |
| Cc1cc(NC(=O)c2ccc3[nH]c(-c4cccc(NC(=O)CCCNC(=N)N)c4)nc3c2)ccc1N(CCCl)CCCl [Compound 2014, 1H-2-[3-[[4-(guanidino)butyryl]amino]phenyl]benzimidazole-5-[N-[3-methyl-4-[N,N-bis(2-chloroethyl)amino]phenyl]]carboxyamide dihydrochloride] | 1.18 |
| N=C(N)NCCCC(=O)Nc1cccc(-c2nc3cc(C(=O)Nc4ccc(N(CCCl)CCCl)c(Cl)c4)ccc3[nH]2)c1 [Compound 2016, 1H-2-[3-[[4-(guanidino)butyryl]amino]phenyl]benzimidazole-5-[N-[3-chloro-4-[N,N-bis(2-chloroethyl)amino]phenyl]]carboxyamide dihydrochloride] | 2.08 |
| CN(C)CCCC(=O)Nc1cccc(-c2nc3cc(C(=O)Nc4ccc(N(CCCl)CCCl)cc4)ccc3[nH]2)c1 [Compound 2031, 1H-2-[3-[[4-(dimethylamino)butyryl]amino]phenyl]benzimidazole-5-[N-[4-[N,N-bis(2-chloroethyl)amino)phenyl]]carboxyamide dihydrochloride] | 1.56 |
| C[S+](C)CCC(=O)Nc1cccc(-c2nc3cc(C(=O)Nc4ccc(N(CCCl)CCCl)cc4)ccc3[nH]2)c1 [Compound 2041, 2-[N-[3-[5-[N-[4-[N,N-bis(2-chloroethyl)amino]phenylnyl]carbamoyl]-1H-benzimidazole-2-yl]phenyl]]carbamoylethyl-dimethylsulfonium iodide] | 0.37 |
| Cc1cc(NC(=O)c2ccc3[nH]c(-c4cccc(NC(=O)CC[S+](C)C)c4)nc3c2)ccc1N(CCCl)CCCl.[I-] [Compound 2044, 2-[N-[3-[5-[N-[3-methyl-4-[N,N-bis(2-chloroethyl)amino]phenyl]carbamoyl]-1Hbenzimidazole-2-yl]phenyl]]carbamoylethyl-dimethylsulfonium iodide] | 0.72 |
| C[S+](C)CCC(=O)Nc1cccc(-c2nc3cc(C(=O)Nc4ccc(N(CCCl)CCCl)c(Cl)c4)ccc3[nH]2)c1 [Compound 2046, 2-[N-[3-[5-[N-[3-chloro-4-[N,N-bis(2-chloroethyl)amino]phenyl]carbamoyl]-1H-benzimidazole-2-yl]phenyl]carbamoylethyl]dimethylsulfonium iodide] | 0.39 |
| O=C(CCN1CCOCC1)Nc1cccc(-c2nc3cc(C(=O)Nc4ccc(N(CCCl)CCCl)cc4)ccc3[nH]2)c1 [Compound 2051, 1H-2-[3-[(3-morpholinopropionyl)amino]phenyl]benzimidazole-5-[N-[4-[N,N-bis(2-chloroethyl)amino]phenyl]]carboxyamide hydrochloride] | 0.49 |
| Cc1cc(NC(=O)c2ccc3[nH]c(-c4cccc(NC(=O)CCN5CCOCC5)c4)nc3c2)ccc1N(CCCl)CCCl [Compound 2053, 1H-2-[3-[(3-morpholinopropionyl)amino]phenyl]benzimidazole-5-[N-[4-[N,N-bis(2-chloroethyl)]amino-3-methyl]phenyl]carboxyamide hydrochloride] | 0.33 |
| O=C(CCN1CCOCC1)Nc1cccc(-c2nc3cc(C(=O)Nc4ccc(N(CCCl)CCCl)c(Cl)c4)ccc3[nH]2)c1 [Compound 2054, 1H-2-[3-[(3-morpholinopropionyl)amino]phenyl]benzimidazole-5-[N-[3-chloro-4-[N-bis(2-chloroethyl)amino]phenyl]]carboxyamide hydrochloride] | 0.41 |
| Cc1cc(NC(=O)c2ccc3[nH]c(-c4cccc(NC(=O)Cc5cccnc5)c4)nc3c2)ccc1N(CCCl)CCCl [Compound 2063, 1H-2-[3-(3-pyridylacetylamino)phenyl]benzimidazole-5-[N-[3-methyl-4-[N,N-bis(2-chloroethyl)amino]phenyl]]carboxyamide] | 3.48 (≈ 5.79 µM) |

tested on: mouse colon cancer cells of Colon 26; assay: Anti-tumor test in mice implanted with Colon 26 cells, tumor weight on 15th day (Test Example 3); format: in vivo; conditions: 10 mg/kg, tail vein on 1st day; Colon 26 s.c. in female CDF1 mouse; tumor weight on 15th day vs control 100%
Procedure: A cell floating solution having 1×10^7 mouse colon cancer cells of Colon 26 per ml of HBSS (Hanks' Balanced Salt Solution) was prepared. Next, 0.1 ml of this cell floating solution was implanted in the side abdomen hypodermis of a female CDFl mouse (0 day). On the day after the tumor implantation (1st day), the weight of the mouse was measured, and a solution of a compound (a 5% glucose solution containing 5% Tween 80) was administered into the tail vein of the mouse. On the 15th day, the tumor was extracted, and its weight was then measured.
An average tumor weight ratio of each experimental sample was calculated as a T/C value on the assumption that the average tumor weight ratio of a control to which any compound was not administered was 100%.
The T/C values correspond to compound numbers, respectively, and each value in the parentheses represents the concentration of the drug at the time when its T/C value was obtained.

| SMILES | T/C [%] |
| --- | --- |
| N=C(N)NCC(=O)Nc1cccc(-c2nc3cc(C(=O)Nc4ccc(N(CCCl)CCCl)c(Cl)c4)ccc3[nH]2)c1 [Compound 2006, 1H-2-[3-(guanidinoacetylamino)phenyl]benzimidazole-5-[N-[3-chloro-4-[N,N-bis(2-chloroethyl)amino]phenyl]]carboxyamide dihydrochloride] | 21 |

same assay, conditions: 20 mg/kg, tail vein on 1st day; Colon 26 s.c. in female CDF1 mouse; tumor weight on 15th day vs control 100%

| SMILES | T/C [%] |
| --- | --- |
| COc1cccc2c1C(=O)c1c(O)c3c(c(O)c1C2=O)C[C@@](O)(C(=O)CO)C[C@@H]3O[C@H]1C[C@H](N)[C@H](O)[C@H](C)O1 [Adriamycin, adriamycin, reference compound] | 29 |

same assay, conditions: 30 mg/kg, tail vein on 1st day; Colon 26 s.c. in female CDF1 mouse; tumor weight on 15th day vs control 100%

| SMILES | T/C [%] |
| --- | --- |
| N=C(N)NCC(=O)Nc1cccc(-c2nc3cc(C(=O)Nc4ccc(N(CCCl)CCCl)cc4)ccc3[nH]2)c1 [Compound 2001, 1H-2-[3-(guanidinoacetylamino)phenyl]benzimidazole-5-[N-[4-[N,N-bis(2-chloroethyl)amino)phenyl]]carboxyamide dihydrochloride] | 13 |

From US5821258A, “Phenylbenzimidazole derivatives” (priority 1994, dated 1998)
